The supplement of paper PMC8960247
Structures can show the parent of a compound that is named as a salt. ± gives the standard error.

Experiments:
[1] = tested on: 621-102 (TSC2-deficient); experiment: relative viability vs DMSO; higher = less cytotoxic; conditions: serum: 10% FBS, 72 h
[2] = tested on: 621-103 (TSC2-rescued); experiment: as above; conditions: serum: 10% FBS, 72 h
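Note: immortalized renal angiomyolipoma cells stably carrying empty vector or TSC2, dosed in 384-well plates in DMEM, viability normalized to vehicle-treated wells within each plate.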

| SMILES | relative viability ([1]; 0.0001 µM) [%] | relative viability ([1]; 0.001 µM) [%] | relative viability ([1]; 0.01 µM) [%] | relative viability ([1]; 0.1 µM) [%] | relative viability ([1]; 1 µM) [%] | relative viability ([1]; 10 µM) [%] | relative viability ([2]; 0.0001 µM) [%] | relative viability ([2]; 0.001 µM) [%] | relative viability ([2]; 0.01 µM) [%] | relative viability ([2]; 0.1 µM) [%] | relative viability ([2]; 1 µM) [%] | relative viability ([2]; 10 µM) [%] |
| --- | --- | --- | --- | --- | --- | --- | --- | --- | --- | --- | --- | --- |
| COc1cc(N2CCC(N3CCN(C)CC3)CC2)ccc1Nc1ncc(Cl)c(Nc2ccccc2S(=O)(=O)C(C)C)n1 [NVP-TAE684] | 105.9 ± 0.18 | 105 ± 2.5 | 100.1 ± 0.29 | 97.9 ± 2.6 | 80.8 ± 1.4 | 3.88 ± 1.5 | 98.4 ± 2.6 | 99.6 ± 1.4 | 99.8 ± 2 | 99.27 ± 0.36 | 75.2 ± 3.5 | 1.56 ± 0.21 |
| COc1ccccc1N1CCN(CC(O)COc2cccc3ccccc23)CC1 (stereo not drawn) [Naftopidil Dihydrochloride] | 103 ± 5.6 | 109 ± 1.6 | 108.5 ± 0.88 | 106 ± 1.2 | 105.81 ± 0.046 | 110 ± 5 | 110 ± 0.54 | 97.8 ± 11 | 106.7 ± 0.54 | 106 ± 3.4 | 104 ± 1.7 | 108 ± 4.8 |
| COc1ccccc1N1CCN(CC(O)COc2cccc3ccccc23)CC1 (stereo not drawn) [Naftopidil] | 106 ± 5.7 | 99.4 ± 2.5 | 101.3 ± 0.6 | 106 ± 5 | 104.5 ± 1 | 97.38 ± 0.86 | 114 ± 4.2 | 111.6 ± 0.22 | 112 ± 1.2 | 108 ± 1.9 | 102.2 ± 0.57 | 107 ± 2.7 |
| c1ccc2c(CC3=NCCN3)cccc2c1 [Naphazoline HCl] | 122 ± 2.4 | 109 ± 2.6 | 117 ± 3 | 111 ± 3.6 | 106.3 ± 0.15 | 112 ± 1.5 | 103 ± 2 | 105.1 ± 0.24 | 103 ± 1.7 | 99.2 ± 5.5 | 104 ± 0.12 | 101.3 ± 0.62 |
| OC(CNCC(O)C1CCc2cc(F)ccc2O1)C1CCc2cc(F)ccc2O1 (stereo not drawn) [Nebivolol HCl] | 81.745 ± 0.015 | 103 ± 2.9 | 106 ± 1.1 | 118 ± 7.1 | 106 ± 2.9 | 77.1 ± 11 | 86.6 ± 8.6 | 116.1 ± 0.89 | 114.3 ± 0.92 | 120 ± 2.8 | 108 ± 4.2 | 36.4 ± 5.6 |
| CN(C)C(=O)Oc1cccc([N+](C)(C)C)c1 [Neostigmine bromide (Prostigmin)] | 103 ± 4.6 | 114 ± 3 | 104.2 ± 0.97 | 102 ± 7.2 | 102 ± 6 | 101.3 ± 0.82 | 92.6 ± 3.7 | 93.3 ± 2.9 | 93.6 ± 1.3 | 95.7 ± 2.7 | 93.8 ± 2.1 | 92.44 ± 0.58 |
| CCOc1cc2ncc(C#N)c(Nc3ccc(OCc4ccccn4)c(Cl)c3)c2cc1NC(=O)/C=C/CN(C)C [Neratinib] | 110 ± 1.2 | 103 ± 1.1 | 117.5 ± 0.44 | 103.9 ± 0.36 | 88.058 ± 0.084 | 50.9 ± 0.56 | 101.7 ± 0.83 | 99.12 ± 0.5 | 100.4 ± 0.55 | 96 ± 2.1 | 67.12 ± 0.38 | 41.08 ± 0.095 |
| Cc1cn(-c2cc(NC(=O)c3ccc(C)c(Nc4nccc(-c5cccnc5)n4)c3)cc(C(F)(F)F)c2)cn1 [Nilotinib] | 70 ± 0.81 | 71.8 ± 7.4 | 70.7 ± 6.9 | 96.2 ± 7.2 | 93 ± 6.9 | 18.9 ± 7.6 | 82.55 ± 0.76 | 82.1 ± 1.1 | 89 ± 1.5 | 90.4 ± 1.4 | 84.5 ± 4.6 | 7.52 ± 0.28 |
| COC(=O)C1=C(C)NC(C)=C(C(=O)OCC(C)C)C1c1ccccc1[N+](=O)[O-] (stereo not drawn) [Nisoldipine] | 100 ± 4.6 | 95.6 ± 4.7 | 104.6 ± 0.62 | 106.7 ± 0.045 | 111 ± 2.9 | 65.91 ± 0.65 | 110 ± 5.8 | 109 ± 7.6 | 108 ± 4 | 111 ± 6.1 | 100 ± 2.3 | 67.8 ± 4.5 |
| CNC(=C[N+](=O)[O-])NCCSCc1csc(CN(C)C)n1 [Nizatidine] | 102 ± 3 | 100.7 ± 0.45 | 101 ± 2.1 | 95.8 ± 1.8 | 106 ± 3.8 | 103 ± 1.6 | 102.5 ± 0.9 | 92.2 ± 3.2 | 101 ± 4.2 | 97.2 ± 1.6 | 102 ± 3.1 | 98.5 ± 4.4 |
| CO[C@@H]1[C@@H](OC(N)=O)[C@@H](O)[C@H](Oc2ccc3c(O)c(NC(=O)c4ccc(O)c(CC=C(C)C)c4)c(=O)oc3c2C)OC1(C)C [Novobiocin sodium (Albamycin)] | 97.5 ± 4.2 | 94.9 ± 2.2 | 99 ± 4 | 112 ± 1.2 | 107 ± 6.3 | 105 ± 4.1 | 104 ± 1.3 | 104.4 ± 0.12 | 102 ± 3.3 | 98.6 ± 2.8 | 105 ± 4.4 | 98.5 ± 3.8 |
| COc1cccc2cc(-c3nc([C@H]4CC[C@H](C(=O)O)CC4)n4ncnc(N)c34)[nH]c12 [OSI-027] | 79.6 ± 8.2 | 88.5 ± 5.6 | 91.5 ± 7 | 90 ± 1.8 | 77.9 ± 2.4 | 25.2 ± 0.58 | 105 ± 2.6 | 101.3 ± 0.67 | 100.8 ± 0.85 | 94.6 ± 4.2 | 81.7 ± 4.1 | 32.3 ± 0.85 |
| C#Cc1cccc(Nc2ncnc3cc(OCCOC)c(OCCO)cc23)c1 [OSI-420] | 118 ± 6.5 | 106.9 ± 0.52 | 103 ± 0.19 | 95.9 ± 4 | 115 ± 2.9 | 95.8 ± 1.9 | 102.2 ± 0.8 | 101.12 ± 0.0035 | 106.2 ± 0.97 | 100 ± 1.9 | 101.78 ± 0.034 | 74.8 ± 1.7 |
| O=C(Nc1ccc(OC(F)(F)F)cc1)c1sccc1NCc1ccnc2ccccc12 [OSI-930] | 84 ± 2.4 | 116 ± 2.3 | 114 ± 4.7 | 111.7 ± 0.23 | 112 ± 1.4 | 108 ± 5 | 95.6 ± 0.43 | 106 ± 1.1 | 108 ± 3.1 | 108 ± 1.7 | 103 ± 1.7 | 100.9 ± 0.9 |
| Cc1cc2c(s1)Nc1ccccc1N=C2N1CCN(C)CC1 [Olanzapine (Zyprexa)] | 108 ± 1.3 | 105 ± 3.1 | 110 ± 2.6 | 115 ± 5.1 | 108 ± 1.7 | 105 ± 4.6 | 103 ± 3 | 100.7 ± 0.71 | 102 ± 4 | 104.8 ± 1 | 96.8 ± 2.5 | 95.1 ± 1.2 |
| CN(C)CC/C=C1/c2ccccc2COc2ccc(CC(=O)O)cc21 [Olopatadine HCl (Opatano)] | 114 ± 2.8 | 114 ± 2.6 | 108 ± 1.5 | 113 ± 3.7 | 105 ± 1.6 | 97.2 ± 6.5 | 104 ± 5 | 103 ± 5.9 | 97 ± 4 | 102 ± 1.3 | 98.51 ± 0.44 | 103 ± 4.8 |
| Cc1cc(C(C)(C)C)c(O)c(C)c1CC1=NCCN1 [Oxymetazoline HCl] | 120 ± 4.5 | 116 ± 4.1 | 112 ± 2 | 107 ± 4.2 | 113.2 ± 0.75 | 103 ± 2.8 | 99.9 ± 0.63 | 96.5 ± 1.5 | 99.3 ± 6 | 98.5 ± 5 | 103 ± 4.4 | 98.8 ± 3.1 |
| O=C(O)/C=C/c1ccc(Cn2ccnc2)cc1 [Ozagrel] | 100 ± 3.7 | 108 ± 3.7 | 105 ± 2.5 | 110 ± 5.1 | 102.8 ± 0.53 | 95.1 ± 4.6 | 107 ± 1.8 | 112 ± 1.7 | 98.4 ± 2.8 | 104 ± 3.1 | 106 ± 2.4 | 103 ± 1.1 |
| O=C(Nc1cccnc1)N1CCC(Cc2cccc(Oc3ccc(C(F)(F)F)cn3)c2)CC1 [PF-3845] | 104 ± 3.4 | 103 ± 2.9 | 104 ± 1.5 | 102.11 ± 0.087 | 102 ± 3.6 | 98.8 ± 1.6 | 110 ± 5.4 | 116 ± 8.3 | 112.64 ± 0.013 | 109 ± 4.7 | 116.1 ± 0.73 | 103 ± 1.1 |
